Data from ChEMBL document CHEMBL4339220, “Scaffold Morphing Approach To Expand the Toolbox of Broad-Spectrum Antivirals Blocking Dengue/Zika Replication” (ACS Med Chem Lett, 2019).

What was measured:
dengue virus type 2 [1] = test: Antiviral activity against Dengue virus type 2 NGC infected in African green monkey Vero B cells assessed as reduction in virus yield; assay type: functional, organism-based, Thailand/NGS-C/1944
[2] = Cytotoxicity in African green monkey Vero B cells assessed as reduction in cell viability by MTS assay; assay type: cell-based; details: chlorocebus aethiops
[3] = Selectivity index, ratio of CC50 for African green monkey Vero B cells to EC50 for Dengue virus type 2 NGC infected in African green monkey Vero B cells; assay type: toxicity; details: read-out: Ratio CC50/EC50
Dengue virus = test: Antiviral activity against Dengue virus; assay type: functional, organism-based
Zika virus [4] = test: Antiviral activity against Zika virus; assay type: functional, organism-based
Zika virus [5] = test: Antiviral activity against Zika virus MR766 infected in African green monkey Vero E6 cells assessed as reduction in virus yield; assay type: functional, organism-based; details: MR766, Vero C1008
[6] = Cytotoxicity in African green monkey Vero E6 cells assessed as reduction in cell viability by MTS assay; assay type: cell-based; details: chlorocebus sabaeus, Vero E6 cells (Vero C1008)
[7] = Selectivity index, ratio of CC50 for African green monkey Vero E6 cells to EC50 for Zika virus MR766 infected in African green monkey Vero E6 cells; assay type: toxicity, Vero C1008; details: read-out: Ratio CC50/EC50
dengue virus type 2 [8] = test: Potency index, ratio of EC50 for RBV to EC50 for test compound for antiviral activity against Dengue virus type 2 NGC infected in African green monkey Vero B cells assessed as reduction in virus yield; assay type: functional, Thailand/NGS-C/1944
Zika virus [9] = test: Potency index, ratio of EC50 for 7DMA to EC50 for test compound for antiviral activity against Zika virus MR766 infected in African green monkey Vero E6 cells assessed as reduction in virus yield; assay type: functional, Vero C1008
[10] = Dengue virus, Thailand/NGS-C/1944, Vero B, read-out: EC50

SMILES	CC50 [2] [µM]	EC50 (dengue virus type 2 [1]; [10]) [µM]	selectivity ratio [3]	EC50 (Zika virus [5]) [µM]	CC50 [6] [µM]	also measured
NS(=O)(=O)c1ccc(Nc2nc(N3CCOCC3)nc3[nH]cnc23)cc1	373					EC50 (dengue virus type 2 [1]): Not Active
OCCNc1nc(Nc2cccc(O)c2)c2nc[nH]c2n1	> 175	7.4	> 24			
O=C1OCc2c(Nc3cccc(O)c3)nc(N3CCOCC3)nc21	> 128	> 128				
Oc1cccc(Nc2nc(N3CCOCC3)nc3[nH]cnc23)c1	122	40.6	3			EC50 (Dengue virus): 40.6 µM
O=C1c2nc(N3CCOCC3)nc(Nc3cccc(O)c3)c2CN1CCc1ccccc1	> 116	70.7				
Oc1cccc(Nc2nc(NCCOc3ccccc3)nc3[nH]cnc23)c1	69.4	10	6.9	16.7	> 124	EC50 (Dengue virus): 10 µM; EC50 (Zika virus [4]): 16.7 µM; selectivity ratio [7]: > 7.4
O=C(NCCOc1ccccc1)c1nc(N2CCOCC2)nc(Nc2cccc(O)c2)c1CO	73.3	62.1	1.2			
O=C1c2nc(N3CCOCC3)nc(Nc3cccc(O)c3)c2CN1CCOc1ccccc1	> 100	20.6	> 4.9			
COc1ccc(CN2Cc3c(Nc4cccc(O)c4)nc(N4CCOCC4)nc3C2=O)cc1	> 112	> 112				
CCCCCOCc1c(Nc2ccc(S(N)(=O)=O)cc2)nc(N2CCOCC2)nc1C(=O)NCCOc1ccccc1	> 83.5	1.82	> 46	2.04	> 83.5	selectivity ratio [7]: > 41; Ratio EC50 (dengue virus type 2 [8]): 6; Ratio EC50 (Zika virus [9]): 3
CCCCCOCc1c(Nc2cccc(O)c2)nc(N2CCOCC2)nc1C(=O)NCc1ccc(C(F)(F)F)cc1	32.8	10.9	3	13.9	48.2	selectivity ratio [7]: 3.5
O=C(NCCc1ccccc1)c1nc(N2CCOCC2)nc(Nc2cccc(O)c2)c1CO	64.5	20.7	3.1			
NS(=O)(=O)c1ccc(Nc2nc(N3CCOCC3)nc(C(=O)NCc3ccccc3)c2CO)cc1	> 100	> 100				
COc1ccc(CNC(=O)c2nc(N3CCOCC3)nc(Nc3cccc(O)c3)c2CO)cc1	> 107	> 107				
CCCCCOCc1c(Nc2ccc(S(N)(=O)=O)cc2)nc(N2CCOCC2)nc1C(=O)NCc1ccccc1	> 87.9	1	> 88	> 87.9	> 87.9	
O=C(NCc1ccccc1)c1nc(N2CCOCC2)nc(Nc2cccc(O)c2)c1CO	> 115	> 115				
CCCCCOCc1c(Nc2ccc(S(N)(=O)=O)cc2)nc(N2CCOCC2)nc1C(=O)NCc1ccc(OC)cc1	> 83.5	> 83.5				
COc1ccc(CN2Cc3c(Nc4ccc(S(N)(=O)=O)cc4)nc(N4CCOCC4)nc3C2=O)cc1	> 97.9	> 97.9				
CCCCCOCc1c(Nc2cccc(O)c2)nc(N2CCOCC2)nc1C(=O)NCc1ccccc1	39.4	20.7	1.9	57.8	> 98.9	selectivity ratio [7]: > 1.7
NS(=O)(=O)c1ccc(Nc2nc(N3CCOCC3)nc3c2CN(CCOc2ccccc2)C3=O)cc1	> 97.9	12.2	> 8	> 97.9	> 97.9	
O=C1c2nc(N3CCOCC3)nc(Nc3cccc(O)c3)c2CN1Cc1ccccc1	> 120	100				
NS(=O)(=O)c1ccc(Nc2nc(N3CCOCC3)nc3c2CN(Cc2ccccc2)C3=O)cc1	> 104	21.6	> 4.8	> 104	> 104	
NS(=O)(=O)c1ccc(Nc2nc(N3CCOCC3)nc3c2COC3=O)cc1	> 128	> 128				
C[C@@]1(O)[C@H](O)[C@@H](CO)O[C@H]1n1ccc2c(N)ncnc21 [BETA-2'-C-METHYL-7-DEAZA-ADENOSINE]				5.7	> 357	EC50 (Zika virus [4]): 9.6 µM; selectivity ratio [7]: > 64
NC(=O)c1ncn([C@@H]2O[C@H](CO)[C@@H](O)[C@H]2O)n1 [RIBAVIRIN]	> 409	11.9	> 34			EC50 (Dengue virus): 11.9 µM; EC50 (Zika virus [4]): 12 µM
